From publication PMC9814219 (Communications Chemistry, 2020)

Legend:
[1] = target: T1, EstA (Clostridium botulinum, UniProt A5I055)
T1 construct: gene lipA

[2] = target: T2, aAbPPO4 (Agaricus bisporus, UniProt C7FF05); test: activity on dopamine after pre-incubation and ultrafiltration, […] nm; assay type: biochemical
T2 construct: gene PPO4; N-terminal GST tag cleaved off with HRV 3C; expressed in E. coli BL21(DE3)
T2 sequence (C7FF05 1-379): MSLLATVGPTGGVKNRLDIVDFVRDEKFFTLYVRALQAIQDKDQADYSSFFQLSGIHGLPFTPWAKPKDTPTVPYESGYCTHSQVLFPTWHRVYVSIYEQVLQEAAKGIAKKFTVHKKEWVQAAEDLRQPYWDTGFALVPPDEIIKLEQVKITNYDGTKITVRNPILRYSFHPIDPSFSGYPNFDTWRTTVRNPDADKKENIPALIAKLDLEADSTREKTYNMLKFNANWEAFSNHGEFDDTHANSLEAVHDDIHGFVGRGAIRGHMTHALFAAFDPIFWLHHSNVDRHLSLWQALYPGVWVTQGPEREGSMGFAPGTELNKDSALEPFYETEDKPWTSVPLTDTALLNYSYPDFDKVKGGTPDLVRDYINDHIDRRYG

T1 sequence (A5I055 1-480): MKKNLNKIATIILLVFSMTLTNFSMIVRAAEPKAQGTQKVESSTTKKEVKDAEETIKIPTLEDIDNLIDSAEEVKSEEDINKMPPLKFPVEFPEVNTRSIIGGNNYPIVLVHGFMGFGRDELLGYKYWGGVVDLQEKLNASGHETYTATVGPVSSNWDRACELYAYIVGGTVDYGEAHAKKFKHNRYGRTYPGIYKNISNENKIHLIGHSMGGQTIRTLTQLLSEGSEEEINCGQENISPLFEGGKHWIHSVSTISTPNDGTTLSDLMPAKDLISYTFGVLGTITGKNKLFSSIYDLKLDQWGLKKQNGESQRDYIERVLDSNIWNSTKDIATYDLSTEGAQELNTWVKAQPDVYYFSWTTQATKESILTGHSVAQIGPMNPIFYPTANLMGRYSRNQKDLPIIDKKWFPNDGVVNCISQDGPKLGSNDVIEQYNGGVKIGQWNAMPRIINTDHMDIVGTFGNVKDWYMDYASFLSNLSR

## CCCC(=O)Oc1ccc([N+](=O)[O-])cc1 [para-nitrophenyl butyrate]
[1]
  photometric, 4-nitrophenol release at 405 nm: on the model substrate para-nitrophenyl butyrate (pNPB) compared to the uncleaved enzyme

## O=S(O)O [sodium bisulphite]
[2]
  activity on dopamine after pre-incubation and ultrafiltration, 475 nm: the loss of PPO activity of aAbPPO4 was verified by an activity assay with dopamine
